pIC50: −log10 of the molar value.
test system: P493-6 (myc "on") cells; test: Cell Proliferation Assay; assay type: cell-based; details: P493-6, 72 h, read-out: Cell prolif P493 72 h IC50, P493-6 cells, 72 h
Experimental: P493-6 (myc “on”) cells were maintained in growth media (RPMI-1640, 10% FBS, 2 mM glutamine, 100 units/ml Penicillin and 100 μg/ml streptomycin) at 37° C. with 5% CO2. For compound assay, P493-6 cells were plated in 96-well V-bottom plates on the day of compound addition in 50 μl of growth media at a cell density of 200,000 cells/ml (10,000 cells/well). Compounds were serially diluted in 100% DMSO at 200-times the final concentration. Compounds were diluted 100-fold into growth media and then 50 μl of this mixture was added to cell plates making the final concentration of DMSO 0.5%. Cells were incubated with compound for 72 hrs at 37° C. with 5% CO2 and analyzed for antiproliferative effects either by Cell Titer Glo (Promega) or FACS analysis using the Viacount (Millipore) kit on the Guava instrument.

Row | Structure (SMILES) | pIC50
1 | CC(O)c1cccc(CC(=O)Nc2ccc(CCCCc3nnc(NC(=O)Cc4ccccc4)s3)nn2)c1 (centres unmarked) [Compound 611] | 7.40
2 | COC(=O)Cc1cccc(OCC(=O)Nc2nnc(CCCCc3ccc(NC(=O)Cc4ccccc4)nn3)s2)c1 [Compound 628] | 6.77
3 | CN(C)C(=O)Cc1cccc(CC(=O)Nc2nnc(CCCCc3ccc(NC(=O)Cc4ccccc4)nn3)s2)c1 [Compound 472] | 7.62
4 | CS(=O)(=O)Cc1cccc(CC(=O)Nc2nnc(CCCCc3ccc(NC(=O)Cc4ccccc4)nn3)s2)c1 [Compound 634] | 7.32
5 | NCc1ccc(CC(=O)Nc2nnc(CCCCc3ccc(NC(=O)Cc4ccccc4)nn3)s2)cc1 [Compound 407] | 7.36
6 | O=C(Cc1ccccc1)Nc1nnc(CCCCc2ccc(NC(=O)NCc3ccccc3)nn2)s1 [Compound 405] | 6.17
7 | COCCOc1cccc(CC(=O)Nc2nnc(CCCCc3ccc(NC(=O)Cc4ccccc4)nn3)s2)c1 [Compound 428] | 7.72
8 | O=C(Cc1ccccc1)Nc1ccc(CCCCc2nnc(NC(=O)Cc3ccc(F)c(CN4CCNCC4)c3)s2)nn1 [Compound 494] | 6.24
9 | Nc1ccc(CCCCc2nnc(NC(=O)Cc3cccc(OC(F)(F)F)c3)s2)nn1 [Compound 584] | 5.85
10 | CN(Cc1cc(CC(=O)Nc2nnc(CCCCc3ccc(NC(=O)Cc4ccccc4)nn3)s2)ccc1F)C(=O)OC(C)(C)C [Compound 569] | 7.96
11 | O=C(Cc1ccccc1)Nc1ccc(CCCCc2nnc(NC(=O)C(O)c3cccc(Br)c3)s2)nn1 (centres unmarked) [Compound 415] | 7.74
12 | CCOC(=O)NCc1cc(C(C)C(=O)Nc2nnc(CCCCc3ccc(NC(=O)Cc4ccccc4)nn3)s2)ccc1F (centres unmarked) [Compound 574] | 7.55
13 | CC(C(=O)Nc1nnc(CCCCc2ccc(NC(=O)Cc3cccc(CNC(=O)OCCF)c3)nn2)s1)c1ccccc1 (centres unmarked) [Compound 591] | 7.48
14 | CC(C(=O)Nc1nnc(CCCCc2ccc(NC(=O)Cc3cccc(CNC(=O)OC(C)(C)C)c3)nn2)s1)c1ccccc1 (centres unmarked) [Compound 489] | 7.64
15 | CC(C)(C)OC(=O)NCc1cccc(CC(=O)Nc2ccc(CCCCc3nnc(NC(=O)Cc4cccc(CNC(=O)OC(C)(C)C)c4)s3)nn2)c1 [Compound 571] | 8.00
16 | Cc1noc(Cc2cccc(CC(=O)Nc3ccc(CCCCc4nnc(NC(=O)Cc5ccccc5)s4)nn3)c2)n1 [Compound 648, 2-(3-((3-methyl-1,2,4-oxadiazol-5-yl)methyl)phenyl)-N-(6-(4-(5-(2-phenylacetamido)-1,3,4-thiadiazol-2-yl)butyl)pyridazin-3-yl)acetamide] | 7.96
17 | O=C(Cc1ccccc1)Nc1ccc(CCCCc2nnc(NC(=O)Cc3cccc(OCCO)c3)s2)nn1 [Compound 427] | 7.57

same assay, conditions: P493-6, 72 h, read-out: Cell prolif P493 72 h IC50, P493 cells, 72 h

Row | Structure (SMILES) | pIC50
18 | COc1ccc(OC)c(CC(=O)Nc2nnc(CCCc3nnc(NC(=O)Cc4cc(OC)ccc4OC)s3)s2)c1 [Compound 265] | 6.51
19 | COc1ccc(C(O)C(=O)Nc2nnc(CCCCc3nnc(NC(=O)C(O)c4ccc(OC)cc4)s3)s2)cc1 (centres unmarked) [Compound 320] | 6.72
20 | CN(C(=O)Cc1ccccc1)c1nnc(CCSCCc2nnc(N(C)C(=O)Cc3ccccc3)s2)s1 [Compound 6] | 5.57
21 | NS(=O)(=O)c1ccc(CC(=O)Nc2nnc(CCSCCc3nnc(NC(=O)Cc4ccc(S(N)(=O)=O)cc4)s3)s2)cc1 [Compound 217] | < 4.30
22 | N[C@H](C(=O)Nc1nnc(CCCCc2nnc(NC(=O)[C@@H](N)c3ccccc3)s2)s1)c1ccccc1 [Compound 187] | 4.68
23 | O=C(Nc1nnc(CCSCCc2nnc(NC(=O)C3COc4ccccc4O3)s2)s1)C1COc2ccccc2O1 (centres unmarked) [Compound 41] | 4.48
24 | O=C(OCC(C(=O)Nc1nnc(CCCCc2nnc(NC(=O)C(COC(=O)C3CCN(C(=O)OCc4ccccc4)CC3)c3ccccc3)s2)s1)c1ccccc1)C1CCN(C(=O)OCc2ccccc2)CC1 (centres unmarked) [Compound 301] | 6.64
25 | N#Cc1cccc(CC(=O)Nc2nnc(CCSCCc3nnc(NC(=O)Cc4cccc(C#N)c4)s3)s2)c1 [Compound 155] | 5.72
26 | O=C(Cc1cccnc1)Nc1nnc(CCCCc2nnc(NC(=O)Cc3cccnc3)s2)s1 [Compound 311] | 4.66
27 | O=C(Cc1ccccc1)Nc1nnc(CCCCc2nnc(NC(=O)C(O)(CO)c3ccccc3)s2)s1 (centres unmarked) [Compound 280] | 6.64
28 | CCCCOC(=O)Nc1nnc(CCCCc2nnc(NC(=O)Cc3ccccc3)s2)s1 [Compound 388] | 6.12
29 | O=C(Nc1nnc(CCCCc2nnc(NC(=O)C(CO)c3cccs3)s2)s1)C(CO)c1cccs1 (centres unmarked) [Compound 190] | 6.31
30 | O=C(Nc1nnc(CCCc2nnc(NC(=O)C(O)Cc3ccccc3)s2)s1)C(O)Cc1ccccc1 (centres unmarked) [Compound 170] | 5.03
31 | CC(C)[C@H](NC(=O)OC(C)(C)C)C(=O)Nc1nnc(CCSCCc2nnc(NC(=O)Cc3ccccc3)s2)s1 [Compound 33] | 5.28
32 | O=C(Cc1ccccc1)Nc1nnc(CCCCc2nnc(NC(=O)Cc3ccccc3)o2)o1 [Compound 305] | 3.99
33 | O=C(Cc1cccc2[nH]ccc12)Nc1nnc(CCCCc2nnc(NC(=O)Cc3cccc4[nH]ccc34)s2)s1 [Compound 323] | 6.70

Row | Structure (SMILES) | pIC50
34 | Nc1nnc(CCCCc2nnc(NC(=O)C(CO)c3ccccc3)s2)s1 (centres unmarked) [Compound 227] | 5.48
35 | COC(=O)C(CC(=O)Nc1nnc(CCCCc2nnc(NC(=O)CC(C(=O)O)c3ccccc3)s2)s1)c1ccccc1 (centres unmarked) [Compound 178] | < 4.30
36 | O=C(Cc1ccccc1)Nc1ccc(CCCCc2ccc(NC(=O)Cc3ccccc3)nn2)nn1 [Compound 1038] | 5.82
37 | O=C(Nc1nnc(CCCCc2nnc(NC(=O)C3Cc4cc(Br)ccc4O3)s2)s1)C1Cc2cc(Br)ccc2O1 (centres unmarked) [Compound 122] | 4.37
38 | O=C(Nc1nnc(CCCCc2nnc(NC(=O)[C@H](O)c3ccccc3)s2)s1)[C@H](O)c1ccccc1 [Compound 80] | 5.89
39 | N[C@@H](C(=O)Nc1nnc(CCSCCc2nnc(NC(=O)[C@H](N)c3ccccc3)s2)s1)c1ccccc1 [Compound 47] | 4.46
40 | O=C(Cc1ccccc1)Nc1nnc(CCCCCc2nnc(NC(=O)Cc3ccccc3)s2)s1 [Compound 11] | 6.05
41 | CC(C)(C)OC(=O)N1CCC(CC(=O)Nc2nnc(CCCCc3nnc(NC(=O)CC4CCN(C(=O)OC(C)(C)C)CC4)s3)s2)CC1 [Compound 114] | 6.25
42 | O=C(Cc1ccco1)Nc1nnc(CCCCc2nnc(NC(=O)Cc3ccco3)s2)s1 [Compound 86] | 6.28
43 | O=C(Cc1ccccc1Br)Nc1nnc(CCSCCc2nnc(NC(=O)Cc3ccccc3Br)s2)s1 [Compound 283] | 6.13
44 | COc1ccc2c(c1)CC(C(=O)Nc1nnc(CCSCCc3nnc(NC(=O)C4Cc5cc(OC)ccc5O4)s3)s1)O2 (centres unmarked) [Compound 117] | 5.21
45 | O=C(Nc1nnc(CCCCc2nnc(NC(=O)C3(c4cccs4)CCOCC3)s2)s1)C1(c2cccs2)CCOCC1 [Compound 167] | 4.47
46 | COc1cccc(CC(=O)Nc2nnc(CCCCc3nnc(NC(=O)Cc4cccc(OC)c4OC)s3)s2)c1OC [Compound 260] | 7.08
47 | CC(CCc1nnc(NC(=O)Cc2ccccc2)s1)Cc1nnc(NC(=O)Cc2ccccc2)s1 (centres unmarked) [Compound 44] | 5.59
48 | O=C(CC1CCCC1)Nc1nnc(CCSCCc2nnc(NC(=O)CC3CCCC3)s2)s1 [Compound 58] | 5.43
49 | O=C(C[C@@H](O)c1ccccc1)Nc1nnc(CCSCCc2nnc(NC(=O)C[C@@H](O)c3ccccc3)s2)s1 [Compound 126] | 4.92

same assay, conditions: P493-6, read-out: Cell prolif P493 72 h IC50; P493 cells, 72 h

Row | Structure (SMILES) | pIC50
50 | O=C(Cc1ccccc1)Nc1nnc(CCCCc2nnc(NC(=O)Oc3ccccc3)s2)s1 [Compound 371] | 5.28
